One data set can be described thus: The drug is tested on Bacteroides fragilis strain: HMW610 for biotransformation. The drug concentrations were measured before and after a 12-h incubation by liquid-chromatography-coupled mass spectrometry (LC–MS). The note with it: 2 µM.
For `Cc1cc2c(cc1S(N)(=O)=O)S(=O)(=O)CCC2`, the “Bacterial Biotransformation” value is on record as “Compound NOT metabolized”.
As to `CC1OC(OC2C(O)CC(OC3C(O)CC(OC4CCC5(C)C(CCC6C5CCC5(C)C(C7=CC(=O)OC7)CCC65O)C4)OC3C)OC2C)CC(O)C1O` (centres undefined), the “Bacterial Biotransformation” value is listed as “Compound metabolized”.

The next data set can be described thus: The drug is tested on Ruminococcus torques strain: ATCC27756 for biotransformation. The drug concentrations were measured before and after a 12-h incubation by liquid-chromatography-coupled mass spectrometry (LC–MS). In kind it is ADME. Also noted: dose 2 uM, timepoint 0 vs 12 hours. The note with it: 2 µM.
For the compound `Cc1cc2c(cc1S(N)(=O)=O)S(=O)(=O)CCC2`, the “Bacterial Biotransformation” value is “Compound NOT metabolized”.
The same measure, in the same setting: under `CC1OC(OC2C(O)CC(OC3C(O)CC(OC4CCC5(C)C(CCC6C5CCC5(C)C(C7=CC(=O)OC7)CCC65O)C4)OC3C)OC2C)CC(O)C1O` (centres undefined) stands “Compound NOT metabolized”.

The nature of another data set: The drug is tested on Bacteroides pectinophilus strain: ATCC43243 for biotransformation. The drug concentrations were measured before and after a 12-h incubation by liquid-chromatography-coupled mass spectrometry (LC–MS). The note with it: 2 µM.
As for `Cc1cc2c(cc1S(N)(=O)=O)S(=O)(=O)CCC2`, the “Bacterial Biotransformation” value is “Compound NOT metabolized”.
`CC1OC(OC2C(O)CC(OC3C(O)CC(OC4CCC5(C)C(CCC6C5CCC5(C)C(C7=CC(=O)OC7)CCC65O)C4)OC3C)OC2C)CC(O)C1O` (centres undefined): the “Bacterial Biotransformation” value is recorded as “Compound NOT metabolized”.

A short description of a further data set: The drug is tested on Enterobacter cancerogenus strain: ATCC35316 for biotransformation. The drug concentrations were measured before and after a 12-h incubation by liquid-chromatography-coupled mass spectrometry (LC–MS). Conditions: 2 µM.
For the compound `Cc1cc2c(cc1S(N)(=O)=O)S(=O)(=O)CCC2`, the “Bacterial Biotransformation” value was “Compound NOT metabolized”.
On to `CC1OC(OC2C(O)CC(OC3C(O)CC(OC4CCC5(C)C(CCC6C5CCC5(C)C(C7=CC(=O)OC7)CCC65O)C4)OC3C)OC2C)CC(O)C1O` (centres undefined), for which the “Bacterial Biotransformation” value is given as “Compound NOT metabolized”.

Another data set is described as follows: The drug is tested on Bacteroides ovatus strain: ATCC8483 for biotransformation. The drug concentrations were measured before and after a 12-h incubation by liquid-chromatography-coupled mass spectrometry (LC–MS). Conditions: 2 µM.
With `Cc1cc2c(cc1S(N)(=O)=O)S(=O)(=O)CCC2`, the “Bacterial Biotransformation” value is listed as “Compound NOT metabolized”.
On the same count and under the same terms, under `CC1OC(OC2C(O)CC(OC3C(O)CC(OC4CCC5(C)C(CCC6C5CCC5(C)C(C7=CC(=O)OC7)CCC65O)C4)OC3C)OC2C)CC(O)C1O` (centres undefined) stands “Compound metabolized”.

A further data set can be described thus: The drug is tested on Blautia luti strain: DSM14534 for biotransformation. The drug concentrations were measured before and after a 12-h incubation by liquid-chromatography-coupled mass spectrometry (LC–MS). Type of data set: ADME. Also on record: dose 2 uM, timepoint 0 vs 12 hours. The note with it: 2 µM.
Consider `Cc1cc2c(cc1S(N)(=O)=O)S(=O)(=O)CCC2`, for which the “Bacterial Biotransformation” value is on record as “Compound NOT metabolized”.
With `CC1OC(OC2C(O)CC(OC3C(O)CC(OC4CCC5(C)C(CCC6C5CCC5(C)C(C7=CC(=O)OC7)CCC65O)C4)OC3C)OC2C)CC(O)C1O` (centres undefined), the “Bacterial Biotransformation” value was “Compound NOT metabolized”.

For a further data set the following is noted: enterocloster bolteae, 12 h, 2 µM.
Description: The drug is tested on Clostridium bolteae strain: ATCCBAA-613 for biotransformation. The drug concentrations were measured before and after a 12-h incubation by liquid-chromatography-coupled mass spectrometry (LC–MS)
With `Cc1cc2c(cc1S(N)(=O)=O)S(=O)(=O)CCC2`, the “Bacterial Biotransformation” value is on record as “Compound NOT metabolized”.
The same measure, in the same setting: under `CC1OC(OC2C(O)CC(OC3C(O)CC(OC4CCC5(C)C(CCC6C5CCC5(C)C(C7=CC(=O)OC7)CCC65O)C4)OC3C)OC2C)CC(O)C1O` (centres undefined) stands “Compound NOT metabolized”.

The nature of a further data set: The drug is tested on Dorea formicigenerans strain: ATCC27755 for biotransformation. The drug concentrations were measured before and after a 12-h incubation by liquid-chromatography-coupled mass spectrometry (LC–MS). The note with it: 2 µM.
On to `CC1OC(OC2C(O)CC(OC3C(O)CC(OC4CCC5(C)C(CCC6C5CCC5(C)C(C7=CC(=O)OC7)CCC65O)C4)OC3C)OC2C)CC(O)C1O` (centres undefined), for which the “Bacterial Biotransformation” value is “Compound NOT metabolized”.

Another data set is described as follows: The drug is tested on Eubacterium rectale strain: ATCC33656 for biotransformation. The drug concentrations were measured before and after a 12-h incubation by liquid-chromatography-coupled mass spectrometry (LC–MS). Conditions: agathobacter rectalis, 2 µM.
`Cc1cc2c(cc1S(N)(=O)=O)S(=O)(=O)CCC2`: the “Bacterial Biotransformation” value is given as “Compound NOT metabolized”.
On the same count and under the same terms, under `CC1OC(OC2C(O)CC(OC3C(O)CC(OC4CCC5(C)C(CCC6C5CCC5(C)C(C7=CC(=O)OC7)CCC65O)C4)OC3C)OC2C)CC(O)C1O` (centres undefined) stands “Compound NOT metabolized”.

The next data set is described as follows: The drug is tested on Parabacteroides merdae strain: ATCC43184 for biotransformation. The drug concentrations were measured before and after a 12-h incubation by liquid-chromatography-coupled mass spectrometry (LC–MS). Conditions: 2 µM.
Consider `Cc1cc2c(cc1S(N)(=O)=O)S(=O)(=O)CCC2`, for which the “Bacterial Biotransformation” value is listed as “Compound NOT metabolized”.
For `CC1OC(OC2C(O)CC(OC3C(O)CC(OC4CCC5(C)C(CCC6C5CCC5(C)C(C7=CC(=O)OC7)CCC65O)C4)OC3C)OC2C)CC(O)C1O` (centres undefined), the “Bacterial Biotransformation” value is on record as “Compound metabolized”.

Another data set can be described thus: The drug is tested on Collinsella intestinalis strain: DSM13280 for biotransformation. The drug concentrations were measured before and after a 12-h incubation by liquid-chromatography-coupled mass spectrometry (LC–MS). The note with it: 2 µM.
For the compound `Cc1cc2c(cc1S(N)(=O)=O)S(=O)(=O)CCC2`, the “Bacterial Biotransformation” value is given as “Compound NOT metabolized”.
`CC1OC(OC2C(O)CC(OC3C(O)CC(OC4CCC5(C)C(CCC6C5CCC5(C)C(C7=CC(=O)OC7)CCC65O)C4)OC3C)OC2C)CC(O)C1O` (centres undefined): the “Bacterial Biotransformation” value is listed as “Compound NOT metabolized”.

A short description of another data set: The drug is tested on Edwardsiella tarda strain: ATCC23685 for biotransformation. The drug concentrations were measured before and after a 12-h incubation by liquid-chromatography-coupled mass spectrometry (LC–MS). Conditions: 2 µM.
As for `Cc1cc2c(cc1S(N)(=O)=O)S(=O)(=O)CCC2`, the “Bacterial Biotransformation” value is listed as “Compound NOT metabolized”.
As for `CC1OC(OC2C(O)CC(OC3C(O)CC(OC4CCC5(C)C(CCC6C5CCC5(C)C(C7=CC(=O)OC7)CCC65O)C4)OC3C)OC2C)CC(O)C1O` (centres undefined), the “Bacterial Biotransformation” value is “Compound NOT metabolized”.

The next data set can be described thus: The drug is tested on Coprococcus comes strain: ATCC27758 for biotransformation. The drug concentrations were measured before and after a 12-h incubation by liquid-chromatography-coupled mass spectrometry (LC–MS). Also on record: dose 2 uM, timepoint 0 vs 12 hours. Type of data set: ADME. The note with it: 2 µM.
Consider `Cc1cc2c(cc1S(N)(=O)=O)S(=O)(=O)CCC2`, for which the “Bacterial Biotransformation” value is given as “Compound NOT metabolized”.
Turning to `CC1OC(OC2C(O)CC(OC3C(O)CC(OC4CCC5(C)C(CCC6C5CCC5(C)C(C7=CC(=O)OC7)CCC65O)C4)OC3C)OC2C)CC(O)C1O` (centres undefined), the “Bacterial Biotransformation” value was “Compound NOT metabolized”.

Another data set can be described thus: The drug is tested on Clostridium symbiosum strain: ATCC14940 for biotransformation. The drug concentrations were measured before and after a 12-h incubation by liquid-chromatography-coupled mass spectrometry (LC–MS). Conditions: 2 µM.
Turning to `Cc1cc2c(cc1S(N)(=O)=O)S(=O)(=O)CCC2`, the “Bacterial Biotransformation” value was “Compound NOT metabolized”.
`CC1OC(OC2C(O)CC(OC3C(O)CC(OC4CCC5(C)C(CCC6C5CCC5(C)C(C7=CC(=O)OC7)CCC65O)C4)OC3C)OC2C)CC(O)C1O` (centres undefined): the “Bacterial Biotransformation” value was “Compound NOT metabolized”.

The nature of another data set: The drug is tested on Subdoligranulum variabile strain: DSM15176 for biotransformation. The drug concentrations were measured before and after a 12-h incubation by liquid-chromatography-coupled mass spectrometry (LC–MS). Conditions: 2 µM.
For `Cc1cc2c(cc1S(N)(=O)=O)S(=O)(=O)CCC2`, the “Bacterial Biotransformation” value is given as “Compound NOT metabolized”.
On the same count and under the same terms, the entry for `CC1OC(OC2C(O)CC(OC3C(O)CC(OC4CCC5(C)C(CCC6C5CCC5(C)C(C7=CC(=O)OC7)CCC65O)C4)OC3C)OC2C)CC(O)C1O` (centres undefined) is “Compound NOT metabolized”.

The conditions of another data set: bacteroides stercoris, 12 h, 2 µM.
Description: The drug is tested on Bacteroides stercoris strain: ATCC43183 for biotransformation. The drug concentrations were measured before and after a 12-h incubation by liquid-chromatography-coupled mass spectrometry (LC–MS)
Regarding `Cc1cc2c(cc1S(N)(=O)=O)S(=O)(=O)CCC2`, the “Bacterial Biotransformation” value is listed as “Compound NOT metabolized”.
As for `CC1OC(OC2C(O)CC(OC3C(O)CC(OC4CCC5(C)C(CCC6C5CCC5(C)C(C7=CC(=O)OC7)CCC65O)C4)OC3C)OC2C)CC(O)C1O` (centres undefined), the “Bacterial Biotransformation” value was “Compound metabolized”.

Another data set in a line: The drug is tested on Bacteroides fragilis strain: ATCC43859 for biotransformation. The drug concentrations were measured before and after a 12-h incubation by liquid-chromatography-coupled mass spectrometry (LC–MS). The note with it: 2 µM.
With `Cc1cc2c(cc1S(N)(=O)=O)S(=O)(=O)CCC2`, the “Bacterial Biotransformation” value is “Compound NOT metabolized”.
Still for that read-out and setting: under `CC1OC(OC2C(O)CC(OC3C(O)CC(OC4CCC5(C)C(CCC6C5CCC5(C)C(C7=CC(=O)OC7)CCC65O)C4)OC3C)OC2C)CC(O)C1O` (centres undefined) stands “Compound metabolized”.

Another data set can be described thus: The drug is tested on Clostridium asparagiforme strain: DSM15981 for biotransformation. The drug concentrations were measured before and after a 12-h incubation by liquid-chromatography-coupled mass spectrometry (LC–MS). The note with it: enterocloster asparagiformis, 2 µM. In kind it is ADME. Also noted: dose 2 uM, timepoint 0 vs 12 hours.
With `Cc1cc2c(cc1S(N)(=O)=O)S(=O)(=O)CCC2`, the “Bacterial Biotransformation” value is given as “Compound NOT metabolized”.
`CC1OC(OC2C(O)CC(OC3C(O)CC(OC4CCC5(C)C(CCC6C5CCC5(C)C(C7=CC(=O)OC7)CCC65O)C4)OC3C)OC2C)CC(O)C1O` (centres undefined): the “Bacterial Biotransformation” value is reported as “Compound NOT metabolized”.

The nature of another data set: The drug is tested on Alistipes indistinctus strain: DSM22520 for biotransformation. The drug concentrations were measured before and after a 12-h incubation by liquid-chromatography-coupled mass spectrometry (LC–MS). The note with it: 2 µM.
For the compound `Cc1cc2c(cc1S(N)(=O)=O)S(=O)(=O)CCC2`, the “Bacterial Biotransformation” value is “Compound NOT metabolized”.
For the compound `CC1OC(OC2C(O)CC(OC3C(O)CC(OC4CCC5(C)C(CCC6C5CCC5(C)C(C7=CC(=O)OC7)CCC65O)C4)OC3C)OC2C)CC(O)C1O` (centres undefined), the “Bacterial Biotransformation” value is reported as “Compound NOT metabolized”.

The nature of a further data set: The drug is tested on Bacteroides coprophilus strain: DSM18228 for biotransformation. The drug concentrations were measured before and after a 12-h incubation by liquid-chromatography-coupled mass spectrometry (LC–MS). The note with it: 2 µM.
Take `Cc1cc2c(cc1S(N)(=O)=O)S(=O)(=O)CCC2`: the “Bacterial Biotransformation” value was “Compound NOT metabolized”.
`CC1OC(OC2C(O)CC(OC3C(O)CC(OC4CCC5(C)C(CCC6C5CCC5(C)C(C7=CC(=O)OC7)CCC65O)C4)OC3C)OC2C)CC(O)C1O` (centres undefined): the “Bacterial Biotransformation” value is listed as “Compound metabolized”.

The values above are taken from ChEMBL document CHEMBL5303573, “Mapping human microbiome drug metabolism by gut bacteria and their genes” (Nature, 2019).
